Measurements from patent publication US6506775B1, “Substituted benzylaminopiperidine compounds” (Pfizer INC, priority 1995, dated 2003).

How the values were obtained:
[1] = tested on: [Sar^9, Met(O2)^11]substance P-induced tapping; assay: [Sar9, Met(O2)11]substance P-induced tapping test in gerbils; format: in vivo; conditions: repetitive hind paw tapping, Examples 3 and 5 compared with the corresponding no halosubstituted compounds
Protocol: The activity of the compounds of this invention against CNS disorders is determined in a [Sar^9, Met(O2)^11]substance P-induced tapping test in gerbils. More specifically, gerbils are lightly anesthetized with ether and the skull surface is exposed. [Sar^9, Met(O2)^11]substance P or vehicle (5 μl) are administered directly into the lateral ventricles via a 25 gauge needle inserted 3.5 mm below lambda. Following injection, gerbils are placed in 2 l beaker individually and monitored for repetitive hind paw tapping. Some compounds prepared in the following Examples were tested in accordance with these testing methods.

Structure (SMILES)	melting point [°C]	activity against CNS disorders [1]
Cl.Cl.Fc1ccc(C(F)(F)F)cc1CN[C@H]1CCCN[C@H]1c1ccccc1	195 to 203	–
COc1ccc(C(C)(C)C#CC(F)(F)F)cc1CN[C@H]1CCCN[C@H]1c1ccccc1.Cl.Cl	225 to 227	–
CC(F)(F)c1ccc(OC(F)(F)F)c(CN[C@H]2CCCN[C@H]2c2ccccc2)c1.Cl.Cl	172 to 174	–
COc1ccc(C(F)(F)F)cc1CN[C@H]1CCCN[C@H]1c1ccccc1.Cl.Cl [Example 3, (2S,3S)-3-(2-Methoxy-5-(trifluoromethyl)benzyl)amino-2-phenylpiperidine dihydrochloride]	228 to 233	unexpectedly improved activity against CNS disorders

Continued, in another order:

melting point [°C]	Structure (SMILES)	activity against CNS disorders [1]
190 to 197	Cl.Cl.FC(F)(F)c1ccc(Oc2ccccc2)c(CN[C@H]2CCCN[C@H]2c2ccccc2)c1	–
265 to 270	COc1ccc(C(F)(C(F)(F)F)C(F)(F)F)cc1CN[C@H]1CCCN[C@H]1c1ccccc1.Cl.Cl	–
290 to 294	COc1ccc(C(C(F)(F)F)C(F)(F)F)cc1CN[C@H]1CCCN[C@H]1c1ccccc1.Cl.Cl [Example 5, (2S,3S)-2-Phenyl-3-(5-(2,2,2-trifluoro-1-(trifluoromethyl)ethyl)-2-methoxybenzyl)aminopiperidine dihydrochloride]	unexpectedly improved activity against CNS disorders
